Test results from ChEMBL document CHEMBL1240326, “ATP non-competitive IGF-1 receptor kinase inhibitors as lead anti-neoplastic and anti-papilloma agents” (Eur J Pharmacol, 2007).

What was measured:
[1] = target: Proto-oncogene tyrosine-protein kinase Src (Homo sapiens, UniProt P12931); assay: Inhibition of human GST-fused Src-mediated Poly Glu4Tyr phosphorylation by ELISA
[2] = cells; conditions: Homo sapiens, HF1, 48 h
Description: Growth inhibition of human HF1 cells transfected with HPV16 after 48 hrs by micro culture methylene blue assay

[3] = test system: Keratinocyte; assay: cells; conditions: Homo sapiens, 72 h
Description: Growth inhibition of human primary keratinocytes after 72 hrs by micro culture methylene blue assay

Chain of Proto-oncogene tyrosine-protein kinase Src (P12931 2-536 limits assumed): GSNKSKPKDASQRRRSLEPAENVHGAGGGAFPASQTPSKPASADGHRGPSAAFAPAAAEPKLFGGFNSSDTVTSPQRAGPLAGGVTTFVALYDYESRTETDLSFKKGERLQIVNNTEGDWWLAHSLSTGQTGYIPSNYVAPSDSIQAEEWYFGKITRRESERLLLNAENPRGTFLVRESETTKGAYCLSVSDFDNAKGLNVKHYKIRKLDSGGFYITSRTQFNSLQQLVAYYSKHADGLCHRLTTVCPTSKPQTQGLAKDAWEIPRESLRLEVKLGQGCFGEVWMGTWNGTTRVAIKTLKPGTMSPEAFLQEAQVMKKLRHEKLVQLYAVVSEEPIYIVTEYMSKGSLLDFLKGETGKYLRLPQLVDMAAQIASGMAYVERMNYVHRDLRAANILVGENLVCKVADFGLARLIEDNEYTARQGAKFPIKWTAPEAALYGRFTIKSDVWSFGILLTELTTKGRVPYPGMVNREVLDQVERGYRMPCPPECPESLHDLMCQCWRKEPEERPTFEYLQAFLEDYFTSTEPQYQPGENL

SMILES	IC50 [1] [nM]	IC50 [2] [µM]	IC50 [3] [µM]
Oc1ccc(CNc2ccc3c(c2)OCO3)cc1O	1860	170	73
Oc1ccc(CN(Cc2ccc(O)c(O)c2)c2ccc3c(c2)OCO3)cc1O	830	106	18
N#C/C(=C\c1ccc(O)c(O)c1)C(=O)c1ccc(O)c(O)c1		390	
